According to patent publication US12414952B2 (Merck Sharp & Dohme LLC, priority 2018, dated 2025):

Target: human A2a adenosine receptor (Homo sapiens (Human), UniProt P29274)
Assay: A2a binding affinity using radioligand binding, Method (A)
Conditions: Method (A): [3H]SCH58261 filtration binding
Excerpt: The A2a receptor affinity binding assay measured the amount of binding of a tritiated ligand with high affinity for the A2a adenosine receptor to membranes made from HEK293 or CHO cells recombinantly expressing the human A2a adenosine receptor, in the presence of varying concentrations of a compound of the invention. The data were generated using either filtration binding or a homogenous scintillation proximity assay (SPA).
Method (A): Measurement of A2a Binding Affinity Using Radioligand Binding
148 μL (5 μg/mL) membranes (Perkin Elmer, Cat. No. RBHA2aM400UA) and 2 μL compounds of the invention to be tested (test compound) were transferred to individual wells of a 96-well polypropylene assay plate and incubated for 15 to 30 min at room temperature. [^3H] SCH58261 ((7-(2-phenylethyl)-5-amino-2-(2-furyl)-pyrazolo-[4,3-e]-1,2,4-triazolo[1,5-c]pyrimidine)) was diluted in assay buffer (50 mM Tris pH 7.4, 10 mM MgCl2, 0.005% Tween20) to a concentration of 4 nM and 50 μL transferred to each well of the assay plate. […] The assay plate was incubated at room temperature for 60 min with agitation. […] Filtering was achieved by aspirating the contents of the assay plate for 5 sec, then washing and aspirating the contents three times with ice-cooled wash buffer (50 mM Tris-HCl pH 7.4, 150 mM NaCl) and allowing the vacuum manifold to dry the plate for […]. The filter plate was incubated for at least 1 h at 55° C. and allowed to dry. The bottom of the filter plate was sealed with backing tape. […] The plate was incubated for at least 20 min, and then the amount of radioactivity remaining in each well was determined using a TopCount® (Perkin Elmer) scintillation counter. After normalization to total and non-specific binding, the percent effect at each compound concentration was calculated. The plot of percent effect versus the log of compound concentration was analyzed electronically using a 4-parameter logistic fit based on the Levenberg-Marquardt algorithm to generate IC50 values.

Sequence of human A2a adenosine receptor (P29274 whole entry): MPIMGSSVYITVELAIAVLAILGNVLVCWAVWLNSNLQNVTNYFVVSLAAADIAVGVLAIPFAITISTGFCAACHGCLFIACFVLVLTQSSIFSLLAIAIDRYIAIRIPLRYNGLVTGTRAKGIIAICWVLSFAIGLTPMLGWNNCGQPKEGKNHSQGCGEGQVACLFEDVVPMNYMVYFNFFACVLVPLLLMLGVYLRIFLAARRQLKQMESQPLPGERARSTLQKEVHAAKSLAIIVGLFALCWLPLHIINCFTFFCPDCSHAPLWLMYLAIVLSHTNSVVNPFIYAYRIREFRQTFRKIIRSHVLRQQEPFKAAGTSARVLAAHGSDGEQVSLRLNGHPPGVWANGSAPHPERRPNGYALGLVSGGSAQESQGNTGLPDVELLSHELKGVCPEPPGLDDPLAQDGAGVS

| IC50 | SMILES |
| --- | --- |
| 0.0031 µM | Nc1nc(-c2ncco2)cn2nc(Cc3ccccc3)nc12 [Example 1.2, 2-benzyl-6-(oxazol-2-yl)-[1,2,4]triazolo[1,5-a]pyrazin-8-amine] |
| 0.0013 µM | Cc1c(-c2nccs2)nc(N)c2nc(Cc3ccccc3)nn12 [Example 1.3] |
| 0.0036 µM | Cc1c(-c2ncccn2)nc(N)c2nc(Cc3ccccc3)nn12 [Example 1.4] |
| 0.909 µM | Cc1nc2c(N)nc(-c3ncco3)cn2n1 [Example 1.5] |
| 0.0074 µM | Cc1nc2c(o1)CN(CCc1nc3c(C)c(-c4ncco4)nc(N)n3n1)C2 [Example 1.7] |
| 0.534 µM | Cc1nc2cc(-c3ncco3)nc(N)n2n1 [Example 1.9] |
| 0.0025 µM | Nc1nc(-c2ccc(F)cc2)cn2nc(Cc3ccccc3)nc12 [Example 2.3, 2-benzyl-6-(4-fluorophenyl)-[1,2,4]triazolo[1,5-a]pyrazin-8-amine] |
| 0.0016 µM | Nc1nc(-c2ccccc2)cn2nc(Cc3ccccc3)nc12 [Example 2.4] |
| 0.112 µM | Cc1nc2c(N)nc(-c3ccccc3)cn2n1 [Example 2.5] |
| 0.523 µM | Cc1nc2c(N)nc(-c3ccc(F)cc3)cn2n1 [Example 2.6] |
| 0.0022 µM | Nc1nc(-c2cc(F)ccc2F)cn2nc(Cc3ccccc3)nc12 [Example 2.7] |
| 0.124 µM | Cc1c(-c2ccc(F)cc2)nc(N)n2nc(CCN3CCn4c(cnc4C(C)C)C3)nc12 [Example 2.17] |
| 0.0267 µM | Cc1nc2c(o1)CN(CCc1nc3c(C)c(-c4cnco4)nc(N)n3n1)C2 [Example 2.25] |
| 0.0011 µM | Cc1c(-c2cccc(F)c2)nc(N)c2nc(Cc3ccccc3)nn12 [Example 3.3, 2-benzyl-6-(3-fluorophenyl)-5-methyl-[1,2,4]triazolo[1,5-a]pyrazin-8-amine] |
| 0.0011 µM | Cc1c(-c2cc(F)ccc2F)nc(N)c2nc(Cc3ccccc3)nn12 [Example 3.4] |
| 0.0022 µM | Cc1c(-c2ccccc2)nc(N)c2nc(Cc3ccccc3)nn12 [Example 3.5] |
| 0.0064 µM | Cc1c(-c2ccccc2F)nc(N)c2nc(Cc3ccccc3)nn12 [Example 3.6] |
| 0.011 µM | COc1ccc(-c2nc(N)c3nc(Cc4ccccc4)nn3c2C)cc1Cl [Example 3.7] |
| 0.0206 µM | COc1ccc(-c2nc(N)c3nc(Cc4ccccc4)nn3c2C)cc1F [Example 3.8] |
| 0.0245 µM | Cc1c(-c2cncc(F)c2)nc(N)c2nc(Cc3ccccc3)nn12 [Example 3.9] |
| 0.0279 µM | Cc1c(-c2ccc(F)c(F)c2)nc(N)c2nc(Cc3ccccc3)nn12 [Example 3.10] |
| 0.0285 µM | COc1cccc(-c2nc(N)c3nc(Cc4ccccc4)nn3c2C)c1F [Example 3.11] |
| 0.038 µM | Cc1c(-c2ccc(Cl)c(Cl)c2)nc(N)c2nc(Cc3ccccc3)nn12 [Example 3.12] |
| 0.04 µM | COc1ncc(-c2nc(N)c3nc(Cc4ccccc4)nn3c2C)cc1F [Example 3.13] |
| 0.0406 µM | COc1ccc(-c2nc(N)c3nc(Cc4ccccc4)nn3c2C)c(F)c1 [Example 3.14] |
| 0.0548 µM | Cc1cc(-c2nc(N)c3nc(Cc4ccccc4)nn3c2C)ccn1 [Example 3.15] |

| IC50 | SMILES |
| --- | --- |
| 0.0739 µM | Cc1c(-c2ccc(Cl)c(F)c2)nc(N)c2nc(Cc3ccccc3)nn12 [Example 3.16] |
| 0.0822 µM | Cc1c(-c2ccc(F)cc2F)nc(N)c2nc(Cc3ccccc3)nn12 [Example 3.17] |
| 0.0844 µM | Cc1c(-c2ccc(Cl)cc2)nc(N)c2nc(Cc3ccccc3)nn12 [Example 3.18] |
| 0.121 µM | Cc1c(-c2ccc(OC(F)F)cc2)nc(N)c2nc(Cc3ccccc3)nn12 [Example 3.19] |
| 0.157 µM | Cc1c(-c2cccc(C(F)(F)F)n2)nc(N)c2nc(Cc3ccccc3)nn12 [Example 3.20] |
| 0.168 µM | Cc1c(-c2ccc(Cl)cc2F)nc(N)c2nc(Cc3ccccc3)nn12 [Example 3.21] |
| 0.49 µM | Cc1c(-c2cnn(C(F)(F)F)c2)nc(N)c2nc(Cc3ccccc3)nn12 [Example 3.44] |
| 0.0178 µM | Cc1c(-c2cc(C(F)(F)F)nn2C)nc(N)c2nc(Cc3ccccc3)nn12 [Example 3.45] |
| 0.0005 µM | Cc1c(-c2ncco2)nc(N)c2nc(Cc3ccccc3C(F)(F)F)nn12 [Example 7.3, 5-methyl-6-(oxazol-2-yl)-2-(2-(trifluoromethyl)benzyl)-[1,2,4]triazolo[1,5-a]pyrazin-8-amine] |
| 0.0153 µM | Cc1c(-c2cc(F)ccc2F)nc(N)c2nc(Cc3ccc(C(F)(F)F)cc3)nn12 [Example 7.4, 6-(2,5-difluorophenyl)-5-methyl-2-(4-(trifluoromethyl)benzyl)-[1,2,4]triazolo[1,5-a]pyrazin-8-amine] |
| 0.493 µM | Nc1nc(-c2ccccc2)cc2nc(CCO)nn12 [Example 14.3, 2-(5-amino-7-phenyl-[1,2,4]triazolo[1,5-c]pyrimidin-2-yl)ethan-1-ol] |
| 0.0006 µM | Cc1c(-c2ncco2)nc(N)n2nc(CCN3CCc4c(ncn4C4CCCC4)C3)nc12 [Example 17.18, 2-(2-(1-cyclopentyl-1,4,6,7-tetrahydro-5H-imidazo[4,5-c]pyridin-5-yl)ethyl)-8-methyl-7-(oxazol-2-yl)-[1,2,4]triazolo[1,5-c]pyrimidin-5-amine] |
| 0.003 µM | Cc1c(-c2ncco2)nc(N)n2nc(CCN3CCc4ncn(C5CCCC5)c4C3)nc12 [Example 17.19, 2-(2-(3-cyclopentyl-3,4,6,7-tetrahydro-5H-imidazo[4,5-c]pyridin-5-yl)ethyl)-8-methyl-7-(oxazol-2-yl)-[1,2,4]triazolo[1,5-c]pyrimidin-5-amine] |
| 0.0909 µM | Nc1nc(-c2ncco2)cc2nc(CCN3CC(F)(F)C3)nn12 [Example 17.20, 2-(2-(3,3-difluoroazetidin-1-yl)ethyl)-7-(oxazol-2-yl)-[1,2,4]triazolo[1,5-c]pyrimidin-5-amine] |
| 0.45 µM | Nc1nc(-c2ncco2)cc2nc(CCN3CCc4[nH]ncc4C3)nn12 [Example 17.21, 7-(oxazol-2-yl)-2-(2-(1,4,6,7-tetrahydro-5H-pyrazolo[4,3-c]pyridin-5-yl)ethyl)-[1,2,4]triazolo[1,5-c]pyrimidin-5-amine] |
| 0.0789 µM | Cn1nc(C(F)(F)F)c2c1CCN(CCc1nc3cc(-c4ncco4)nc(N)n3n1)C2 [Example 17.22, 2-(2-(1-methyl-3-(trifluoromethyl)-1,4,6,7-tetrahydro-5H-pyrazolo[4,3-c]pyridin-5-yl)ethyl)-7-(oxazol-2-yl)-[1,2,4]triazolo[1,5-c]pyrimidin-5-amine] |
| 0.122 µM | Nc1nc(-c2ncco2)cc2nc(CCN3CCN(CC4CC4)C(=O)C3)nn12 [Example 17.23, 4-(2-(5-amino-7-(oxazol-2-yl)-[1,2,4]triazolo[1,5-c]pyrimidin-2-yl)ethyl)-1-(cyclopropylmethyl)piperazin-2-one] |
| 0.319 µM | Cc1cc2n(n1)CCN(CCc1nc3cc(-c4ncco4)nc(N)n3n1)C2 [Example 17.24, 2-(2-(2-methyl-6,7-dihydropyrazolo[1,5-a]pyrazin-5(4H)-yl)ethyl)-7-(oxazol-2-yl)-[1,2,4]triazolo[1,5-c]pyrimidin-5-amine] |
| 0.402 µM | Nc1nc(-c2ncco2)cc2nc(CCN3CCc4nccnc4C3)nn12 [Example 17.25, 2-(2-(7,8-dihydropyrido[3,4-b]pyrazin-6(5H)-yl)ethyl)-7-(oxazol-2-yl)-[1,2,4]triazolo[1,5-c]pyrimidin-5-amine] |
| 0.629 µM | CC(C)c1ncc2n1CCN(CCc1nc3c(N)nc(-c4ncco4)cn3n1)C2 [Example 17.26, 2-(2-(3-isopropyl-5,6-dihydroimidazo[1,5-a]pyrazin-7(8H)-yl)ethyl)-6-(oxazol-2-yl)-[1,2,4]triazolo[1,5-a]pyrazin-8-amine] |
| 0.0399 µM | Nc1nc(-c2ccccc2)cc2nc(CCN3CCn4c(cnc4C4CCC4)C3)nn12 [Example 17.27, 2-(2-(3-cyclobutyl-5,6-dihydroimidazo[1,5-a]pyrazin-7(8H)-yl)ethyl)-7-phenyl-[1,2,4]triazolo[1,5-c]pyrimidin-5-amine] |
| 0.0005 µM | Cc1c(-c2ncco2)nc(N)n2nc(Cc3ccccc3)nc12 [Example 19.3, 2-benzyl-8-methyl-7-(oxazol-2-yl)-[1,2,4]triazolo[1,5-c]pyrimidin-5-amine] |
| 0.0005 µM | Cc1c(-c2ncco2)nc(N)c2nc(Cc3ccccc3)nn12 [Example 20.2, 2-benzyl-5-methyl-6-(oxazol-2-yl)-[1,2,4]triazolo[1,5-a]pyrazin-8-amine] |
| 0.04 µM | Cc1c(-c2ccc(F)cc2)nc(N)c2nc(Cc3ccccc3)nn12 [Example 20.3, 2-benzyl-6-(4-fluorophenyl)-5-methyl-[1,2,4]triazolo[1,5-a]pyrazin-8-amine] |
| 0.0032 µM | Nc1nc(-c2ncco2)c(C2CC2)n2nc(Cc3ccccc3)nc12 [Example 20.4, 2-benzyl-5-cyclopropyl-6-(oxazol-2-yl)-[1,2,4]triazolo[1,5-a]pyrazin-8-amine] |
| 0.0215 µM | Cc1c(-c2ncco2)nc(N)n2nc(Cn3cc(CCC(C)(C)O)cn3)nc12 [Example 21.3, 4-(1-((5-amino-8-methyl-7-(oxazol-2-yl)-[1,2,4]triazolo[1,5-c]pyrimidin-2-yl)methyl)-1H-pyrazol-4-yl)-2-methylbutan-2-ol] |
